Measured values reported in ChEMBL document CHEMBL1909294, “Translating clinical findings into knowledge in drug safety evaluation--drug induced liver injury prediction system (DILIps)” (PLoS Comput Biol, 2011).

How the values were obtained:
Hepatotoxicity [1] = system: Hepatotoxicity;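 as to HepSE bilirubinemia: bilirubinemia hepatic side effect score drawn from the DILIps training data, a prediction system for drug-induced liver injury; call rule not given here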;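 as to HepSE cholecystitis: Cholecystitis-related hepatic side effect score drawn from the DILIps (drug-induced liver injury prediction) training data set; call rule not given here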;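 as to HepSE cholelithiasis: hepatic side effect score for cholelithiasis, drawn from the DILIps training data for predicting drug-induced liver injury; call rule not given here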;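 as to HepSE cirrhosis: cirrhosis hepatic side effect score taken from the DILIps (drug-induced liver injury prediction) training set; call rule not given here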;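 as to HepSE elevated liver function tests: hepatic side effect score for raised liver function tests, as recorded in the DILIps training set used for predicting drug-induced liver injury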; as to HepSE hepatic failure: call rule not given here;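 as to HepSE hepatomegaly: hepatic side effect score for hepatomegaly, taken from the training set of the DILIps drug-induced liver injury prediction system; call rule not given here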
Hepatotoxicity [2] = system: Hepatotoxicity; remark: listed apart in the source;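 as to HepSE bilirubinemia: bilirubinemia hepatic side effect score drawn from the DILIps training data, a prediction system for drug-induced liver injury; call rule not given here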;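 as to HepSE cholecystitis: Cholecystitis-related hepatic side effect score drawn from the DILIps (drug-induced liver injury prediction) training data set; call rule not given here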;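 as to HepSE cholelithiasis: hepatic side effect score for cholelithiasis, drawn from the DILIps training data for predicting drug-induced liver injury; call rule not given here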;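 as to HepSE cirrhosis: cirrhosis hepatic side effect score taken from the DILIps (drug-induced liver injury prediction) training set; call rule not given here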;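 as to HepSE elevated liver function tests: hepatic side effect score for raised liver function tests, as recorded in the DILIps training set used for predicting drug-induced liver injury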; as to HepSE hepatic failure: call rule not given here
Hepatotoxicity [3] = system: Hepatotoxicity; remark: listed apart in the source;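 as to HepSE bilirubinemia: bilirubinemia hepatic side effect score drawn from the DILIps training data, a prediction system for drug-induced liver injury; call rule not given here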;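 as to HepSE cholecystitis: Cholecystitis-related hepatic side effect score drawn from the DILIps (drug-induced liver injury prediction) training data set; call rule not given here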;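 as to HepSE cholelithiasis: hepatic side effect score for cholelithiasis, drawn from the DILIps training data for predicting drug-induced liver injury; call rule not given here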;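 as to HepSE cirrhosis: cirrhosis hepatic side effect score taken from the DILIps (drug-induced liver injury prediction) training set; call rule not given here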;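 as to HepSE elevated liver function tests: hepatic side effect score for raised liver function tests, as recorded in the DILIps training set used for predicting drug-induced liver injury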; as to HepSE hepatic failure: call rule not given here
Hepatotoxicity [4] = system: Hepatotoxicity; remark: listed apart in the source;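 as to HepSE bilirubinemia: bilirubinemia hepatic side effect score drawn from the DILIps training data, a prediction system for drug-induced liver injury; call rule not given here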;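 as to HepSE cholecystitis: Cholecystitis-related hepatic side effect score drawn from the DILIps (drug-induced liver injury prediction) training data set; call rule not given here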;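 as to HepSE cholelithiasis: hepatic side effect score for cholelithiasis, drawn from the DILIps training data for predicting drug-induced liver injury; call rule not given here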;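 as to HepSE cirrhosis: cirrhosis hepatic side effect score taken from the DILIps (drug-induced liver injury prediction) training set; call rule not given here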;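 as to HepSE elevated liver function tests: hepatic side effect score for raised liver function tests, as recorded in the DILIps training set used for predicting drug-induced liver injury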; as to HepSE hepatic failure: call rule not given here
Hepatotoxicity [5] = system: Hepatotoxicity; remark: listed apart in the source; as to HepSE hepatic failure: call rule not given here
Hepatotoxicity [6] = system: Hepatotoxicity; remark: listed apart in the source; as to HepSE hepatic failure: call rule not given here
Hepatotoxicity [7] = system: Hepatotoxicity; remark: listed apart in the source
Hepatotoxicity [8] = system: Hepatotoxicity; remark: listed apart in the source
Hepatotoxicity [9] = system: Hepatotoxicity; remark: listed apart in the source
Hepatotoxicity [10] = system: Hepatotoxicity; remark: listed apart in the source
Hepatotoxicity [11] = system: Hepatotoxicity; remark: listed apart in the source
Hepatotoxicity [12] = system: Hepatotoxicity; remark: listed apart in the source
Hepatotoxicity [13] = system: Hepatotoxicity; remark: listed apart in the source
Hepatotoxicity [14] = system: Hepatotoxicity; remark: listed apart in the source

SMILES | HepSE_bilirubinemia (Hepatotoxicity [1]) | HepSE_cholecystitis (Hepatotoxicity [2]) | HepSE_cholelithiasis (Hepatotoxicity [3]) | HepSE_cirrhosis (Hepatotoxicity [4]) | HepSE_elevated liver function tests (Hepatotoxicity [5]) | HepSE_hepatic failure (Hepatotoxicity [6]) | HepSE_hepatic necrosis (Hepatotoxicity [7]) | HepSE_hepatitis (Hepatotoxicity [8]) | HepSE_hepatomegaly (Hepatotoxicity [9]) | HepSE_jaundice (Hepatotoxicity [10]) | HepSE_liver disease (Hepatotoxicity [11]) | HepSE_liver fatty (Hepatotoxicity [12]) | HepSE_liver function tests abnormal (Hepatotoxicity [13]) | HepSE_Combined Scores (Hepatotoxicity [14]) | further results
NC(N)=Nc1nc(CSCCC(N)=NS(N)(=O)=O)cs1 [FAMOTIDINE] |  |  |  |  |  |  |  |  |  |  |  |  |  |  | HepSE_bilirubinemia (Hepatotoxicity [1]; Liver): 0; HepSE_cholecystitis (Hepatotoxicity [2]; Liver): 0; HepSE_cholelithiasis (Hepatotoxicity [3]; Liver): 0; HepSE_cirrhosis (Hepatotoxicity [4]; Liver): 0; HepSE_elevated liver function tests (Hepatotoxicity [5]; Liver): 0; HepSE_hepatic failure (Hepatotoxicity [6]; Liver): 0; HepSE_hepatic necrosis (Hepatotoxicity [7]; Liver): 0; HepSE_hepatitis (Hepatotoxicity [8]; Liver): 0; HepSE_hepatomegaly (Hepatotoxicity [9]; Liver): 0; HepSE_jaundice (Hepatotoxicity [10]; Liver): 1; HepSE_liver disease (Hepatotoxicity [11]; Liver): 0; HepSE_liver fatty (Hepatotoxicity [12]; Liver): 0; HepSE_liver function tests abnormal (Hepatotoxicity [13]; Liver): 0; HepSE_Combined Scores (Hepatotoxicity [14]; Liver): 1
CCOC(=O)C1=C(C)NC(C)=C(C(=O)OC)C1c1cccc(Cl)c1Cl (stereo not drawn) [FELODIPINE] | 0 | 0 | 0 | 0 | 0 | 0 | 0 | 1 | 0 | 0 | 0 | 0 | 0 | 1 | 
CC(C)OC(=O)C(C)(C)Oc1ccc(C(=O)c2ccc(Cl)cc2)cc1 [FENOFIBRATE] | 0 | 1 | 1 | 1 | 0 | 0 | 0 | 1 | 0 | 1 | 0 | 1 | 1 | 7 | 
Oc1ccc(C2CNCCc3c2cc(O)c(O)c3Cl)cc1 (stereo not drawn) [FENOLDOPAM] | 0 | 0 | 0 | 0 | 0 | 0 | 0 | 0 | 0 | 0 | 0 | 0 | 0 | 0 | 
CC(C(=O)O)c1cccc(Oc2ccccc2)c1 (stereo not drawn) [FENOPROFEN] | 0 | 0 | 0 | 0 | 0 | 0 | 0 | 1 | 0 | 1 | 0 | 0 | 0 | 2 | 
CC(C)(C)NC(=O)[C@H]1CC[C@H]2[C@@H]3CC[C@H]4NC(=O)C=C[C@]4(C)[C@H]3CC[C@]12C [FINASTERIDE] | 0 | 0 | 0 | 0 | 0 | 0 | 0 | 0 | 0 | 0 | 0 | 0 | 0 | 0 | 
Cc1c(-c2ccccc2)oc2c(C(=O)OCCN3CCCCC3)cccc2c1=O [FLAVOXATE] | 0 | 0 | 0 | 0 | 0 | 0 | 0 | 0 | 0 | 0 | 0 | 0 | 0 | 0 | 
O=C(NCC1CCCCN1)c1cc(OCC(F)(F)F)ccc1OCC(F)(F)F (stereo not drawn) [FLECAINIDE] | 0 | 0 | 0 | 0 | 0 | 1 | 0 | 0 | 0 | 1 | 0 | 0 | 0 | 2 | 
OC(Cn1cncn1)(Cn1cncn1)c1ccc(F)cc1F [FLUCONAZOLE] |  |  |  |  |  |  |  |  |  |  |  |  |  |  | HepSE_bilirubinemia (Hepatotoxicity [1]; Liver): 0; HepSE_cholecystitis (Hepatotoxicity [2]; Liver): 0; HepSE_cholelithiasis (Hepatotoxicity [3]; Liver): 0; HepSE_cirrhosis (Hepatotoxicity [4]; Liver): 0; HepSE_elevated liver function tests (Hepatotoxicity [5]; Liver): 0; HepSE_hepatic failure (Hepatotoxicity [6]; Liver): 1; HepSE_hepatic necrosis (Hepatotoxicity [7]; Liver): 1; HepSE_hepatitis (Hepatotoxicity [8]; Liver): 1; HepSE_hepatomegaly (Hepatotoxicity [9]; Liver): 0; HepSE_jaundice (Hepatotoxicity [10]; Liver): 1; HepSE_liver disease (Hepatotoxicity [11]; Liver): 0; HepSE_liver fatty (Hepatotoxicity [12]; Liver): 0; HepSE_liver function tests abnormal (Hepatotoxicity [13]; Liver): 0; HepSE_Combined Scores (Hepatotoxicity [14]; Liver): 4
Nc1nc(=O)[nH]cc1F [FLUCYTOSINE] | 0 | 0 | 0 | 0 | 0 | 0 | 0 | 0 | 0 | 1 | 0 | 0 | 0 | 1 | 
Nc1nc(F)nc2c1ncn2[C@@H]1O[C@H](CO)[C@@H](O)[C@@H]1O [FLUDARABINE] | 0 | 0 | 1 | 0 | 0 | 1 | 0 | 0 | 0 | 0 | 0 | 0 | 0 | 2 | 
C[C@]12CCC(=O)C=C1CC[C@H]1[C@@H]3CC[C@](O)(C(=O)CO)[C@@]3(C)C[C@H](O)[C@@]12F [FLUDROCORTISONE] | 0 | 0 | 0 | 0 | 0 | 0 | 0 | 0 | 0 | 0 | 0 | 0 | 0 | 0 | 
CCOC(=O)c1ncn2c1CN(C)C(=O)c1cc(F)ccc1-2 [FLUMAZENIL] | 0 | 0 | 0 | 0 | 0 | 0 | 0 | 0 | 0 | 0 | 0 | 0 | 0 | 0 | 
C[C@@H]1C[C@H]2[C@@H]3C[C@H](F)C4=CC(=O)C=C[C@]4(C)[C@@]3(F)[C@@H](O)C[C@]2(C)[C@@]1(O)C(=O)CO [FLUMETHASONE] | 0 | 0 | 0 | 0 | 0 | 0 | 0 | 0 | 0 | 0 | 0 | 0 | 0 | 0 | 
CC1(C)O[C@@H]2C[C@H]3[C@@H]4C[C@H](F)C5=CC(=O)C=C[C@]5(C)[C@H]4[C@@H](O)C[C@]3(C)[C@]2(C(=O)CO)O1 [FLUNISOLIDE] | 0 | 0 | 0 | 0 | 0 | 0 | 0 | 0 | 0 | 0 | 0 | 0 | 0 | 0 | 
CC1(C)O[C@@H]2C[C@H]3[C@@H]4C[C@H](F)C5=CC(=O)C=C[C@]5(C)[C@@]4(F)[C@@H](O)C[C@]3(C)[C@]2(C(=O)CO)O1 [FLUOCINOLONE ACETONIDE] | 0 | 0 | 0 | 0 | 0 | 0 | 0 | 0 | 0 | 0 | 0 | 0 | 0 | 0 | 
CC(=O)OCC(=O)[C@@]12OC(C)(C)O[C@@H]1C[C@H]1[C@@H]3C[C@H](F)C4=CC(=O)C=C[C@]4(C)[C@@]3(F)[C@@H](O)C[C@@]12C [FLUOCINONIDE] | 0 | 0 | 0 | 0 | 0 | 0 | 0 | 0 | 0 | 0 | 0 | 0 | 0 | 0 | 
